Each compound was assayed on Myotonic Dystrophy 1 affected patient fibroblasts (Coriell GM04602; 1600 CTG repeats) (assay: DM1 foci reduction assay (CAG10-Cy3 FISH, average foci per nucleus)). Conditions: Homo sapiens, Fibroblast, 48 h, read-out: Foci Reduction in Fibroblast EC50, 48 h (nM).
Assay type: cell-based
Method in brief: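 DM1 patient fibroblasts (GM04602, 1600 CTG) treated 48 h at 37 °C, 8-point 1:3 dilutions from 3 μM top dose; wild-type GM07492 as control. PFA-fixed, ethanol-permeabilized cells hybridized overnight with 5 nM CAG10-Cy3 probe, DAPI-counterstained, imaged at 20× in 4 fields; average foci per nucleus per well.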

Going from CCN(CC)CCCC[C@H](NC(=O)[C@H](CC(C)C)NC(=O)[C@H](C)NC(=O)[C@H](Cc1ccccc1)NC(=O)c1ccc(C(C)(C)C)cc1)C(=O)N[C@@H](CO)C(=O)NCCOCCOCCOCCOCCOCCNC(=O)c1cc(NC(=O)c2nc(NC(=O)CCNC(=O)c3cc(NC(=O)c4nc(NC(=O)CCCNC(=O)c5cc(NC(=O)c6nc(NC(=O)CCNC(=O)c7cc(NC(=O)c8nccn8C)cn7C)cn6C)cn5C)cn4C)cn3C)cn2C)cn1C [Compound 130] to CCN(CC)CCCC[C@H](NC(=O)[C@H](CC(C)C)NC(=O)[C@H](C)NC(=O)[C@H](Cc1ccccc1)NC(=O)c1ccc(C(C)(C)C)cc1)C(=O)N[C@@H](CO)C(=O)NCCOCCOCCOCCOCCOCCNC(=O)CCNC(=O)c1cc(NC(=O)c2nc(NC(=O)CCNC(=O)c3cc(NC(=O)c4nc(NC(=O)CCCNC(=O)c5cc(NC(=O)c6nc(NC(=O)CCNC(=O)c7cc(NC(=O)c8nccn8C)cn7C)cn6C)cn5C)cn4C)cn3C)cn2C)cn1C [Compound 135], the EC50 rises from < 100 nM to > 500 nM.

First: CCN(CC)CCCC[C@H](NC(=O)[C@H](CC(C)C)NC(=O)[C@H](C)NC(=O)[C@H](Cc1ccccc1)NC(=O)c1ccc(C(C)(C)C)cc1)C(=O)N[C@@H](CO)C(=O)NCCOCCOCCOCCOCCOCCNC(=O)c1cc(NC(=O)c2nc(NC(=O)CCNC(=O)c3cc(NC(=O)c4nc(NC(=O)[C@H](CCNC(=O)c5cc(NC(=O)c6nc(NC(=O)CCNC(=O)c7cc(NC(=O)c8nccn8C)cn7C)cn6C)cn5C)NC(C)=O)cn4C)cn3C)cn2C)cn1C [Compound 132]
Second: CCCNC(=O)c1cc(NC(=O)c2nc(NC(=O)CCNC(=O)c3cc(NC(=O)c4nc(NC(=O)[C@@H](CCNC(=O)c5cc(NC(=O)c6nc(NC(=O)CCNC(=O)c7cc(NC(=O)c8nccn8C)cn7C)cn6C)cn5C)NC(=O)COCCOCCOCCOCCOCCNC(=O)[C@H](CO)NC(=O)[C@H](CCCCN(CC)CC)NC(=O)[C@H](CC(C)C)NC(=O)[C@H](C)NC(=O)[C@H](Cc5ccccc5)NC(=O)c5ccc(C(C)(C)C)cc5)cn4C)cn3C)cn2C)cn1C [Compound 133]
The EC50 of the first is lower: < 100 nM for the first, 100 to 500 nM for the second.

First: CCN(CC)CCCC[C@H](NC(=O)[C@H](CC(C)C)NC(=O)[C@H](C)NC(=O)[C@H](Cc1ccccc1)NC(=O)c1ccc(C(C)(C)C)cc1)C(=O)N[C@@H](CO)C(=O)NCCOCCOCCOCCOCCOCC(=O)N[C@H](CCNC(=O)c1cc(NC(=O)c2nc(NC(=O)CCNC(=O)c3cc(NC(=O)c4nccn4C)cn3C)cn2C)cn1C)C(=O)Nc1cn(C)c(C(=O)Nc2cc(C(=O)NCCC(=O)Nc3cn(C)c(C(=O)Nc4cc(C(=O)NCCO)n(C)c4)n3)n(C)c2)n1 [Compound 134]
Second: CCCNC(=O)CCNC(=O)c1nc(NC(=O)c2nc(NC(=O)CCNC(=O)c3nc(NC(=O)[C@@H](CCNC(=O)c4cc(NC(=O)c5nc(NC(=O)CCNC(=O)c6cc(NC(=O)c7nccn7C)cn6C)cn5C)cn4C)NC(=O)COCCOCCOCCOCCOCCNC(=O)[C@H](CO)NC(=O)[C@H](CCCCN(CC)CC)NC(=O)[C@H](CC(C)C)NC(=O)[C@H](C)NC(=O)[C@H](Cc4ccccc4)NC(=O)c4ccc(C(C)(C)C)cc4)cn3C)cn2C)cn1C [Compound 137]
The EC50 of the first is higher: > 500 nM for the first, < 100 nM for the second.

CCN(CC)CCCC[C@H](NC(=O)CCCCOCCNC(=O)c1ccc(C(C)(C)C)cc1)C(=O)N[C@@H](CO)C(=O)NCCOCCOCCOCCOCCOCCNC(=O)CCNC(=O)c1nc(NC(=O)c2cc(NC(=O)CCNC(=O)c3nc(NC(=O)CCCNC(=O)c4cc(NC(=O)c5nc(NC(=O)CCNC(=O)c6cc(NC(=O)c7nccn7C)cn6C)cn5C)cn4C)cn3C)cn2C)cn1C [Compound 138] and CCN(CC)CCCC[C@H](NC(=O)CCCCOCCOCCNC(=O)c1ccc(C(C)(C)C)cc1)C(=O)N[C@@H](CO)C(=O)NCCOCCOCCOCCOCCOCCNC(=O)CCNC(=O)c1nc(NC(=O)c2cc(NC(=O)CCNC(=O)c3nc(NC(=O)CCCNC(=O)c4cc(NC(=O)c5nc(NC(=O)CCNC(=O)c6cc(NC(=O)c7nccn7C)cn6C)cn5C)cn4C)cn3C)cn2C)cn1C [Compound 141] fall in the same range of EC50: 100 to 500 nM for the first, 100 to 500 nM for the second.

First: CCN(CC)CCCC[C@H](NC(=O)CCCCCCCNC(=O)c1ccc(C(C)(C)C)cc1)C(=O)N[C@@H](CO)C(=O)NCCOCCOCCOCCOCCOCCNC(=O)CCNC(=O)c1nc(NC(=O)c2cc(NC(=O)CCNC(=O)c3nc(NC(=O)CCCNC(=O)c4cc(NC(=O)c5nc(NC(=O)CCNC(=O)c6cc(NC(=O)c7nccn7C)cn6C)cn5C)cn4C)cn3C)cn2C)cn1C [Compound 139]
Second: CCN(CC)CCCC[C@H](NC(=O)CCCCNC(=O)c1cnn(-c2ccc(C(C)(C)C)cc2)c1)C(=O)N[C@@H](CO)C(=O)NCCOCCOCCOCCOCCOCCNC(=O)CCNC(=O)c1nc(NC(=O)c2cc(NC(=O)CCNC(=O)c3nc(NC(=O)CCCNC(=O)c4cc(NC(=O)c5nc(NC(=O)CCNC(=O)c6cc(NC(=O)c7nccn7C)cn6C)cn5C)cn4C)cn3C)cn2C)cn1C [Compound 151]
The EC50 of the first is lower: < 100 nM for the first, > 500 nM for the second.

Compared with CCN(CC)CCCC[C@H](NC(=O)COCCOCCOCCNC(=O)c1ccc(C(C)(C)C)cc1)C(=O)N[C@@H](CO)C(=O)NCCOCCOCCOCCOCCOCCNC(=O)CCNC(=O)c1nc(NC(=O)c2cc(NC(=O)CCNC(=O)c3nc(NC(=O)CCCNC(=O)c4cc(NC(=O)c5nc(NC(=O)CCNC(=O)c6cc(NC(=O)c7nccn7C)cn6C)cn5C)cn4C)cn3C)cn2C)cn1C [Compound 140], CCN(CC)CCCC[C@H](NC(=O)COCCNC(=O)c1cnn(-c2ccc(C(C)(C)C)cc2)c1)C(=O)N[C@@H](CO)C(=O)NCCOCCOCCOCCOCCOCCNC(=O)CCNC(=O)c1nc(NC(=O)c2cc(NC(=O)CCNC(=O)c3nc(NC(=O)CCCNC(=O)c4cc(NC(=O)c5nc(NC(=O)CCNC(=O)c6cc(NC(=O)c7nccn7C)cn6C)cn5C)cn4C)cn3C)cn2C)cn1C [Compound 150] is higher in EC50: 100 to 500 nM for the first, > 500 nM for the second.

First: CC(C)CN(CCCC[C@H](NC(=O)COCCOCCNC(=O)c1ccc(C(C)(C)C)cc1)C(=O)N[C@@H](CO)C(=O)NCCOCCOCCOCCOCCOCCNC(=O)CCNC(=O)c1nc(NC(=O)c2cc(NC(=O)CCNC(=O)c3nc(NC(=O)CCCNC(=O)c4cc(NC(=O)c5nc(NC(=O)CCNC(=O)c6cc(NC(=O)c7nccn7C)cn6C)cn5C)cn4C)cn3C)cn2C)cn1C)C1CC2CCC1C2 (stereo partly shown) [Compound 144]
Second: CCN(CC)CCCC[C@H](NC(=O)N1CC(c2cnc(CNC(=O)c3ccc(C(C)(C)C)cc3)[nH]2)C1)C(=O)N[C@@H](CO)C(=O)NCCOCCOCCOCCOCCOCCNC(=O)CCNC(=O)c1nc(NC(=O)c2cc(NC(=O)CCNC(=O)c3nc(NC(=O)CCCNC(=O)c4cc(NC(=O)c5nc(NC(=O)CCNC(=O)c6cc(NC(=O)c7nccn7C)cn6C)cn5C)cn4C)cn3C)cn2C)cn1C [Compound 155]
The EC50 of the first is lower: < 100 nM for the first, 100 to 500 nM for the second.

CC(C)C[C@H](NC(=O)[C@H](Cc1ccccc1)NC(=O)[C@H](CCCCN(C)C(C)C)NC(=O)[C@@H]1C[C@@H]2CCCC[C@@H]2N1)C(=O)NCCOCCOCCOCCOCCOCCNC(=O)CCNC(=O)c1nc(NC(=O)c2cc(NC(=O)CCNC(=O)c3nc(NC(=O)CCCNC(=O)c4cc(NC(=O)c5nc(NC(=O)CCNC(=O)c6cc(NC(=O)c7nccn7C)cn6C)cn5C)cn4C)cn3C)cn2C)cn1C [Compound 145] and CN(CCCC[C@H](NC(=O)[C@H](CCCN1CCOCC1)NC(=O)[C@@H](NC(=O)[C@H](Cc1ccccc1)NC(=O)c1ccc(C(C)(C)C)cc1)C1CCC1)C(=O)N[C@@H](CO)C(=O)NCCOCCOCCOCCOCCOCCNC(=O)CCNC(=O)c1nc(NC(=O)c2cc(NC(=O)CCNC(=O)c3nc(NC(=O)CCCNC(=O)c4cc(NC(=O)c5nc(NC(=O)CCNC(=O)c6cc(NC(=O)c7nccn7C)cn6C)cn5C)cn4C)cn3C)cn2C)cn1C)C1CC2CCC1C2 (stereo partly shown) [Compound 149] fall in the same range of EC50: 100 to 500 nM for the first, 100 to 500 nM for the second.

First: CC(C)CN(CCCC[C@H](NC(=O)[C@H](CCCN1CCOCC1)NC(=O)[C@@H](NC(=O)[C@H](Cc1ccccc1)NC(=O)c1ccc(C(C)(C)C)cc1)C1CCC1)C(=O)N[C@@H](CO)C(=O)NCCOCCOCCOCCOCCOCCNC(=O)CCNC(=O)c1nc(NC(=O)c2cc(NC(=O)CCNC(=O)c3nc(NC(=O)CCCNC(=O)c4cc(NC(=O)c5nc(NC(=O)CCNC(=O)c6cc(NC(=O)c7nccn7C)cn6C)cn5C)cn4C)cn3C)cn2C)cn1C)C1CC2CCC1C2 (stereo partly shown) [Compound 148]
Second: CCN(CC)CCCC[C@H](NC(=O)Cc1nc2cc(CC(=O)Nc3ccc(C(C)(C)C)cc3)cnc2[nH]1)C(=O)N[C@@H](CO)C(=O)NCCOCCOCCOCCOCCOCCNC(=O)CCNC(=O)c1nc(NC(=O)c2cc(NC(=O)CCNC(=O)c3nc(NC(=O)CCCNC(=O)c4cc(NC(=O)c5nc(NC(=O)CCNC(=O)c6cc(NC(=O)c7nccn7C)cn6C)cn5C)cn4C)cn3C)cn2C)cn1C [Compound 152]
The EC50 of the first is higher: > 500 nM for the first, 100 to 500 nM for the second. The second is the more potent here.

Same assay, conditions: Homo sapiens, Fibroblast; DM1 fibroblasts, 48 h treatment, 8-point dose response, 3 μM top dose; read-out: Foci Reduction in Fibroblast EC50, 48 h

First: COc1cccc(C(=O)N2CCN(C(=O)CN(CCOCCOCCOCCOCCOCCNC(=O)CCNC(=O)c3nc(NC(=O)c4cc(NC(=O)CCNC(=O)c5nc(NC(=O)CCCNC(=O)c6cc(NC(=O)c7nc(NC(=O)CCNC(=O)c8cc(NC(=O)c9nccn9C)cn8C)cn7C)cn6C)cn5C)cn4C)cn3C)c3cccc(C)c3)CC2)c1OC [Compound 142]
Second: COc1cccc(C(=O)N2CCN(C(=O)CN(C(=O)COCCOCCOCCOCCOCCNC(=O)CCNC(=O)c3nc(NC(=O)c4cc(NC(=O)CCNC(=O)c5nc(NC(=O)CCCNC(=O)c6cc(NC(=O)c7nc(NC(=O)CCNC(=O)c8cc(NC(=O)c9nccn9C)cn8C)cn7C)cn6C)cn5C)cn4C)cn3C)c3ccc(NC(N)=O)c(C)c3)CC2)c1OC [Compound 143]
The EC50 of the first is lower: 100 to 500 nM for the first, > 500 nM for the second. The first is the more potent here.

CN(C)[C@H]1CN(C2CCc3cccc(F)c32)C[C@@H]1c1ccc(N2CCN(C(=O)COCCOCCOCCOCCOCCNC(=O)CCNC(=O)c3nc(NC(=O)c4cc(NC(=O)CCNC(=O)c5nc(NC(=O)CCCNC(=O)c6cc(NC(=O)c7nc(NC(=O)CCNC(=O)c8cc(NC(=O)c9nccn9C)cn8C)cn7C)cn6C)cn5C)cn4C)cn3C)CC2)cc1 (stereo partly shown) [Compound 146] and CN(C)[C@H]1CN(C2CCc3cccc(F)c32)C[C@@H]1c1ccc(N2CCN(S(=O)(=O)CCOCCOCCOCCOCCOCCNC(=O)CCNC(=O)c3nc(NC(=O)c4cc(NC(=O)CCNC(=O)c5nc(NC(=O)CCCNC(=O)c6cc(NC(=O)c7nc(NC(=O)CCNC(=O)c8cc(NC(=O)c9nccn9C)cn8C)cn7C)cn6C)cn5C)cn4C)cn3C)CC2)cc1 (stereo partly shown) [Compound 147] cannot be ordered by EC50: > 500 nM for the first, > 500 nM for the second.

Reference: patent US20240166693A1, “METHODS AND COMPOUNDS FOR MODULATING MYOTONIC DYSTROPY 1” (Design Therapeutics, Inc., priority 2020, published 2024)
